The source made the active and inactive calls.
How the values were obtained:
[1] = MC4R antagonists, dose response, counter-screen for LGR2 antagonist project, cell-based, plate reader, cherry pick (AID 743444); type: functional;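 further: transfected HEK 293 cells stimulated with alpha-MSH peptide; potency of inhibitors of the alpha-MSH evoked signal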
[2] = LGR2 antagonists, dose response, cell-based, HEK293, CRE-luciferase reporter, cherry pick (AID 743342); type: functional
HEK293 [3] = experiment: cells; conditions: Homo sapiens
[4] = Luminescence Cell-Based Dose Response HTS to Identify Activators of Luciferase Translation or Activity in H4 […] Cells. [Related pubchem assays: 1829 (Project Summary), 1814 (Primary HTS)]; type: functional
[5] = biological target: T1, Replicative DNA helicase DnaB (Mycobacterium tuberculosis, UniProt P9WMR3); experiment: DnaB intein splicing inhibitors, dose response, biochemical, cell-free fluorescence (AID 449749); type: functional
T1 sequence (P9WMR3 whole entry): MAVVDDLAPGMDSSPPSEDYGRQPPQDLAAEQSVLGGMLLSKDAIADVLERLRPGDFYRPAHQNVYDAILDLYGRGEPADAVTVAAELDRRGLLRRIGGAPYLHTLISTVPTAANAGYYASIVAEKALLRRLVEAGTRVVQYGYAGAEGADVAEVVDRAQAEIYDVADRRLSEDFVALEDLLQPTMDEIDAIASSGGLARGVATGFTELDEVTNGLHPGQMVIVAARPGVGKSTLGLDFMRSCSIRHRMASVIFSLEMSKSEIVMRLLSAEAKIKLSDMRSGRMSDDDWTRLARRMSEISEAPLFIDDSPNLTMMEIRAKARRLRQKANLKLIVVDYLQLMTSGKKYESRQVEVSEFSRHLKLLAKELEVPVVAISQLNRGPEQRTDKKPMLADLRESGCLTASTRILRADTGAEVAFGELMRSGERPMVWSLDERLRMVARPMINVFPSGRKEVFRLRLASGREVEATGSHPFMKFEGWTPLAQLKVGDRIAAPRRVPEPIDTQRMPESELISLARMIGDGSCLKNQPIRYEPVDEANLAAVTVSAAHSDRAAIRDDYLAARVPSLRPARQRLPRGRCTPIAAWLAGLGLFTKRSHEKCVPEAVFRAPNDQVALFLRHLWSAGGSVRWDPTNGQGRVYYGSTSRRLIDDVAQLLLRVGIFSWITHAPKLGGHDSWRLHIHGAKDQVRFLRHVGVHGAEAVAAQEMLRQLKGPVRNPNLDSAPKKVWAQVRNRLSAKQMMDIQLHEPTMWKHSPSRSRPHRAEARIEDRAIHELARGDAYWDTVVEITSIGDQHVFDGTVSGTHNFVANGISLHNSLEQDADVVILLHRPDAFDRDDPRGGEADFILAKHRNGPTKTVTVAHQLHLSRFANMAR

[6] = Luminescence Cell-Based Dose Confirmation HTS to Identify Activators of 5'UTR Stem-Loop Driven Alpha-Synuclein mRNA Translation in H4 Neuroglioblastoma Cells. [Related pubchem assays: 1829 (Project Summary), 1814 (Primary HTS)]; type: functional
HEK293 [7] = experiment: cells; conditions: Homo sapiens; remark: listed apart in the source
[8] = human group III sPLA2 inhibitors, dose response, biochemical, QFRET, IC50 (AID 743457);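 further: green fluorescence rise as the enzyme cleaves BODIPY PC-A2 in liposomes; potency for inhibition of the enzyme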
Protein RecA = biological target: T2, Protein RecA (Mycobacterium tuberculosis, UniProt P9WHJ3); experiment: Fluorescence Cell-Free Homogeneous Dose Retest to Identify Inhibitors of RecA-Intein Splicing Activity. [Related pubchem assays (depositor defined):AID2097, AID2223, AID489010, AID492950]; type: functional
T2 sequence (P9WHJ3 whole entry): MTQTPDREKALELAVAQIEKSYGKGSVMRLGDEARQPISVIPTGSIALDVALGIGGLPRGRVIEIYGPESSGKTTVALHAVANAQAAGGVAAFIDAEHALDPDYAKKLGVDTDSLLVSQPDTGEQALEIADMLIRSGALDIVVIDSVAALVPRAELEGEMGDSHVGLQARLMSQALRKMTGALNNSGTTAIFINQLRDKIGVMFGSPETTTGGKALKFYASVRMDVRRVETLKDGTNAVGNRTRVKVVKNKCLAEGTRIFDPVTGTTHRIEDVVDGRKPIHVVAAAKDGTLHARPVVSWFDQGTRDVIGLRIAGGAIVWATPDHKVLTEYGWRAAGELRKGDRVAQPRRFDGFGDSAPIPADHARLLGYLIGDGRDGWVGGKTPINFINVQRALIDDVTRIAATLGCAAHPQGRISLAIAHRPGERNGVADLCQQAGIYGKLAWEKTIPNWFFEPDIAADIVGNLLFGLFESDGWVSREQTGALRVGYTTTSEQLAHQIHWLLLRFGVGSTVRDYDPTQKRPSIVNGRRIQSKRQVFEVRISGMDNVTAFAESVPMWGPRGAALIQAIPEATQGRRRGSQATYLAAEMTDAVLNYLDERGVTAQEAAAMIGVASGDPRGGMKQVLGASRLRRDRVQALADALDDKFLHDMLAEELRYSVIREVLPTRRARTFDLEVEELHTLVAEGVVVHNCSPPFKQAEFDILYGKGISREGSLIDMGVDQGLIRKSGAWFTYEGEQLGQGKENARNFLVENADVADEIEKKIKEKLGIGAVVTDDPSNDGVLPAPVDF

[9] = biological target: G-protein coupled receptor 55 (Homo sapiens, UniProt Q9Y2T6); experiment: GPR55 antagonists blocking LPI-driven arrestin recruitment, primary screen, imaging, U2OS, beta-arrestin-GFP, LPI agonist (AID 2013); type: functional;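 further: antagonist potency measured as reduced agonist-driven arrestin aggregation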
Sequence of G-protein coupled receptor 55 (Q9Y2T6 whole entry): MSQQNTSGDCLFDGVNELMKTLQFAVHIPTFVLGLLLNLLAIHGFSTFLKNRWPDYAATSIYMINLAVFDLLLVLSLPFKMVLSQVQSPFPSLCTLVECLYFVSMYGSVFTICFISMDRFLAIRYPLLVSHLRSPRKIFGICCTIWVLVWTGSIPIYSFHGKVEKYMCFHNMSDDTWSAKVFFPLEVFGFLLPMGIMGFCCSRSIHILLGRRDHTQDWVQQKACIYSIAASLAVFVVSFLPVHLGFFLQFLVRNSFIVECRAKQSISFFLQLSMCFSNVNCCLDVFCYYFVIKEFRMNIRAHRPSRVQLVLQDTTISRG

H4 = experiment: Luminescence Cell-Based Dose Response HTS to Identify Activators of 5'UTR Stem-Loop Driven Prion Protein mRNA Translation in H4 Neuroglioblastoma Cells. [Related pubchem assays: 1829 (Project Summary), 1814 (Primary HTS)]; type: functional; conditions: Homo sapiens
fMet-Leu-Phe receptor = fMet-Leu-Phe receptor (Homo sapiens, UniProt P21462); experiment: FPR ligands, dose response (AID 519); type: functional
Sequence of fMet-Leu-Phe receptor (P21462 whole entry): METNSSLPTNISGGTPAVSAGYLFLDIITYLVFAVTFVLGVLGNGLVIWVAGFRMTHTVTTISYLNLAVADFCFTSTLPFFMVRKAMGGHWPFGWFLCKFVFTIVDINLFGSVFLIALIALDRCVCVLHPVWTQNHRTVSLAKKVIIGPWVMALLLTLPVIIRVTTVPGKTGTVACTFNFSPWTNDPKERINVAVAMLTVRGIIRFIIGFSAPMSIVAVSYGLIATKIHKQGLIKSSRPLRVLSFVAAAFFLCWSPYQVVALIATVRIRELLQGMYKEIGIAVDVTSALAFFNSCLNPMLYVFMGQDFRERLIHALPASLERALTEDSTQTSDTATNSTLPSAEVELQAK

Streptokinase A = biological target: T3, Streptokinase A (Streptococcus pyogenes serotype M1, UniProt P10520); experiment: S. pyogenes streptokinase expression inhibitors, potency, dose response, plasminogen activation absorbance, OD405 (AID 1914); type: functional, Streptococcus pyogenes M1 GAS;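 further: secreted streptokinase activity via plasminogen activation per viability signal from cell pellet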
T3 sequence (P10520 whole entry): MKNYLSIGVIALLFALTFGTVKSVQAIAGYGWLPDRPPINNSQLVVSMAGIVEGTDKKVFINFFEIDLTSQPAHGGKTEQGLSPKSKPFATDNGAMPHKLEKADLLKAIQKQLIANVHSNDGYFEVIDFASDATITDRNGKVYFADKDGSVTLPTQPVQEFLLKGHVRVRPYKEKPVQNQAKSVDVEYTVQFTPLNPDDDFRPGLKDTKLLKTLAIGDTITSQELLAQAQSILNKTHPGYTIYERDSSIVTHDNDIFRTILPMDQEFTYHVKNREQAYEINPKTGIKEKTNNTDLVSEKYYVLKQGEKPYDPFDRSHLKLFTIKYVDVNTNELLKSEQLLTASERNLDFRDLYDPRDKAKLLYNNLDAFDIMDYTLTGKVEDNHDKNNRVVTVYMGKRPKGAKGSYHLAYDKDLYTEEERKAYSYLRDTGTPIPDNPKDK

HEK293 [10] = experiment: inhibitors of LMP1-driven NF-kB reporter, dose response, cell-based, HEK293, luciferase, cherry-pick (AID 588343); type: functional; conditions: Homo sapiens
Streptococcus = experiment: Group A Streptococcus viability loss, dose response, counter-screen for streptokinase expression inhibitor project, luminescence, BacTiterGlo (AID 1915); type: functional, organism-based;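 further: potency for reduction of bacterial viability or growth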
[11] = system: Streptococcus sp. 'group A'; experiment: growth inhibition of control SK(-) GAS strain, dose response, counter-screen for streptokinase expression inhibitor project, luminescence, kanamycin, BacTiterGlo, confirmation (AID 1900); type: functional, organism-based
INS1 = experiment: beta cell apoptosis inhibitors, cytokine rescue, dose response, luminescence, retest (AID 449756); type: functional, cell-based; conditions: Rattus norvegicus;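 further: cell death triggered by IL-1 beta plus TNF-alpha plus IFN-gamma mixture; protective hits raise ATP signal compared with cytokine alone wells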
[12] = biological target: T4, Corticotropin-releasing factor receptor 2/Corticotropin-releasing factor-binding protein (Homo sapiens, UniProt P24387+Q13324); experiment: Dose Response confirmation of uHTS hits for small molecule antagonists of the CRF-binding protein and CRF-R2 receptor complex.; type: functional; conditions: read-out: IC50_Mean
T4 sequence (Q13324 whole entry): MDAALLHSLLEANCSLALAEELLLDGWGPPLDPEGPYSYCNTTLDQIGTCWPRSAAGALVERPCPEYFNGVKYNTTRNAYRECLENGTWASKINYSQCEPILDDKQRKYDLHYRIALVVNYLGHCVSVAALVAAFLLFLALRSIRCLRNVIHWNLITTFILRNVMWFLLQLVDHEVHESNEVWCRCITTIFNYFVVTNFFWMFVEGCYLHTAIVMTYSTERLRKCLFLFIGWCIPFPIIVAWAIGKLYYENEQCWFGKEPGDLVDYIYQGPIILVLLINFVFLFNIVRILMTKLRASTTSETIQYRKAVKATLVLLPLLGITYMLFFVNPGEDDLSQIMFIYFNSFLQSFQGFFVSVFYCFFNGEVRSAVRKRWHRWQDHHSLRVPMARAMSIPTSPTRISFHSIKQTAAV
T4 sequence (P24387 whole entry): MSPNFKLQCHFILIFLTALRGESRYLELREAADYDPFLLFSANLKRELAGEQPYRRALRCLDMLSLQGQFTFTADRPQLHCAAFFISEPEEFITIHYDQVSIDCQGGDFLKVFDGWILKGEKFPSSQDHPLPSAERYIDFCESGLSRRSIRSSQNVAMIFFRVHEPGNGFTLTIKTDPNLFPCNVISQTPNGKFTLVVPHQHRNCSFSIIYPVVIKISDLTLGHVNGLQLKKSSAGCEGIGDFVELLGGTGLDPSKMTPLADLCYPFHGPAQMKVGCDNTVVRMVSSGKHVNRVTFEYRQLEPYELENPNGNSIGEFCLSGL

[13] = biological target: Disintegrin and metalloproteinase domain-containing protein 17 (Homo sapiens, UniProt P78536); experiment: exosite inhibitors of ADAM17, dose response, biochemical (AID 743260)
Sequence of Disintegrin and metalloproteinase domain-containing protein 17 (P78536 whole entry, the tested form may be a part): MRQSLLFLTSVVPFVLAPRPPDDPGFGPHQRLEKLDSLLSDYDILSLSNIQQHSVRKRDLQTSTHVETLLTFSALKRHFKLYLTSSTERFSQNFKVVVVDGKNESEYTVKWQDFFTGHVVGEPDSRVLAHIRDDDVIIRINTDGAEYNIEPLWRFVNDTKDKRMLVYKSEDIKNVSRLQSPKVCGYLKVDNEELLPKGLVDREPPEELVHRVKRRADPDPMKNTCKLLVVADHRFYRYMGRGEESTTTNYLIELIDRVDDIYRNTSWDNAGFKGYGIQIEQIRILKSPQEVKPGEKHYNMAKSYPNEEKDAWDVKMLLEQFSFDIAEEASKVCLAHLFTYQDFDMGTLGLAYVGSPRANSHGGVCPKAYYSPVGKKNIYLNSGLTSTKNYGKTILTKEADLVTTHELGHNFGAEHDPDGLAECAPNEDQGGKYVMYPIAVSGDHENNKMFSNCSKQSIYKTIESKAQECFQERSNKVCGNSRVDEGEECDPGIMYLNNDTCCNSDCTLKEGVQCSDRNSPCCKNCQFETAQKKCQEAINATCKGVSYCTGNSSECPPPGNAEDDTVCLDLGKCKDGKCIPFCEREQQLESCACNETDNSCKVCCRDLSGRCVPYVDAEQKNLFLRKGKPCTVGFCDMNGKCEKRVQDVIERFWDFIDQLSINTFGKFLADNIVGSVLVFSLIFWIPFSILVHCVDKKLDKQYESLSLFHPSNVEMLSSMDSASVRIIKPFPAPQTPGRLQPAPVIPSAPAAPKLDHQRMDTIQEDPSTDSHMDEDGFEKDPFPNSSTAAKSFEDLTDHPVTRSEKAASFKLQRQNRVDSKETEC

[14] = biological target: T4, Corticotropin-releasing factor receptor 2/Corticotropin-releasing factor-binding protein; experiment: activators of CRF receptor 2 with binding protein – uHTS hits, confirmation (AID 602473); type: functional; conditions: read-out: EC50_Mean
[15] = ADAM10 protease inhibitors, dose response, selectivity assay for ADAM17 exosite inhibitor project, biochemical, FRET peptide substrate, recombinant human ADAM10 (AID 743259);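 further: ADAM10 enzyme cleaving a FRET peptide substrate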

Structure (SMILES): C[C@H](CO)N1C[C@H](C)[C@H](CN(C)C(=O)Nc2cccc3ccccc23)OCCCC[C@H](C)Oc2ccc(NC(=O)NC3CCCCC3)cc2C1=O
- AC50 [1]: 45.6 µM (active)
- AC50 [2]: 4.13 µM (active)

Structure (SMILES): CCOC(=O)c1c(CSC(=N)N)n(-c2ccccc2)c2cc(Br)c(OC(C)=O)cc12
- EC50 (HEK293 [3]): > 59.6 µM (inactive)
- EC50 [4]: 9.69 µM (active)
- AC50 [5]: 5.9 µM (active)
- EC50 [6]: > 120 µM (not active)
- EC50 (HEK293 [7]): > 59.6 µM (inactive)
- IC50 [8]: > 122 µM (inactive)
- EC50 (Protein RecA): 9.76 µM (active)
- IC50 [9]: 3.23 µM (active)
- EC50 (H4): > 120 µM (not active)

Structure (SMILES): O=C(NC1CCCC1)C1CC1c1ccccc1 (configuration not stated)
- Ki (fMet-Leu-Phe receptor): > 66.7 µM (inactive)

Structure (SMILES): Oc1c2c(nc3c(-c4ccc(Cl)cc4)cnn13)CCCC2
- Ki (fMet-Leu-Phe receptor): > 66.7 µM (inactive)
- EC50 (Streptokinase A): > 150 µM (not active)
- AC50 (HEK293 [10]): 2.89 µM (active)
- EC50 (Streptococcus): 9.5 µM (active)
- EC50 [11]: 3.64 µM (active)
- AC50 (INS1): 2.37 µM (active)

Structure (SMILES): Cc1cc2oc(=O)cc(-c3ccccc3)c2c(C)c1-c1ccc(O)cc1
- IC50 [12]: > 47.1 µM (inactive)
- IC50 [13]: > 69.5 µM (inactive)
- EC50 [14]: > 53 µM (inactive)
- IC50 [15]: > 69.5 µM (inactive)

— ChEMBL document CHEMBL1201862, “PubChem BioAssay data set” (2004)
